This is an account of results in publication PMC6482291, “Anticonvulsant Activity of Pterostilbene in Zebrafish and Mouse Acute Seizure Tests” (Neurochemical Research, 2019).

Series [1] has as its system mice. Briefly: Forced swim test. The class given is in vivo. The conditions noted are these: IMI 20 mg/kg ip; p < 0.05. The method, then:
The forced swim test was carried out according to the method described by Porsolt et al. to assess antidepressant properties of PTE. Mice were placed individually in a glass cylinder (25 cm high; 10 cm diameter) containing tap water to a depth of 11 cm. Water was maintained at temperature of 23–25 °C. Mice were permitted to swim for 6 min and duration of their immobility was recorded during the last 4 min of the test by a trained experimenter who was blinded to the treatment. Immobility time was recorded using cumulative stopwatches. Mouse was considered to be immobile when it was floating in the water without struggling and making no attempts to escape, it was making only these movements necessary to keep its head above the water. After each trial, the water in the cylinder was replaced with fresh water. Experimental groups consisted of 10 animals.
Data obtained in the forced swim test were expressed as the mean (in s) + SEM immobility time in each experimental group. Results were analyzed by one-way ANOVA.

The subject of series [2] is PTZ-induced seizures in mice. Briefly: Timed iv PTZ seizure threshold test in mice. The class given is in vivo. The conditions noted are these: VPA 150 mg/kg ip, 15 min before test. As to the method:
Each mice was placed in the cylindrical restrainer and the needle (27G, 3/4 in., Sterican®, B. Braun Melsungen AG, Melsungen, Germany) was injected into the lateral tail vein. The needle was attached by the polyethylene drain (PE20RW, Plastic One Inc. Roanoke, VA, USA) with the syringe containing 1% solution of PTZ (Sigma–Aldrich, St. Louis, MO, USA) in water and the syringe was located in the infuse pomp (model Physio 22, Hugo Sachs Elektronik–Harvard Apparatus GmbH, March-Hugstetten, Germany). The correct placement of the needle in the vein was confirmed based on the presence of the blood in the drain and the needle was protected against displacement by a peace of adhesive tape. Following injection, mice were took out from the restrainer and placed in the Plexiglas box for observation. The PTZ solution was infused into the vein at a constant rate of 0.2 ml/min. The time intervals from the start of infusion of PTZ solution to the beginning of three kinds of seizures, i.e., the first myoclonic twitch, generalized clonus with loss of the righting reflex and forelimb tonic extension, were noted. Infusion of PTZ solution was stopped immediately after onset of the tonic seizures, which usually were lethal. If animal survived the test, it was euthanized immediately. The threshold dose of PTZ (in mg/kg body weight) for each kind of seizures was calculated according to the following formula: PTZmg/kg=infusion durations×infusion rateml/s×PTZ concentrationmg/ml/weightkg
Experimental groups consisted of 9–13 animals. The data obtained in the iv PTZ test are presented as the threshold dose of PTZ (in mg/kg) + standard error of the mean (SEM) needed to elicit the respective kind of seizures. The data were analyzed by one-way ANOVA followed by the Tukey’s multiple comparison test. Statistical significance was noted when p values were equal or lower than 0.05.

For series [3], the system named is mice. Briefly: Grip-strength test. The format is in vivo. The note with it: 15 min before test. The method, then:
The acute effect of PTE on the skeletal muscles strength in mice was determined in the grip strength test. The apparatus for this test (BioSeb, Chaville, France) consisted of a steel wire grid (8 × 8 cm) connected to an isometric force transducer. Each mouse was lifted by tail and allowed to grasp the grid with its forepaws and then it was gently pulled backward until its released the grid. The maximal force in newtons (N) exerted by mouse before leaving the grid was recorded. The mean of three consecutive measurements for each animal was calculated and normalized to body weight (mN/g).
Experimental groups consisted of 12 animals. Results obtained in the grip-strength test were compared using one-way ANOVA followed by the Tukey’s post-hoc multiple comparison test.

The test system of series [4] is 6 Hz-induced psychomotor seizures in mice. Kind of series: 6 Hz psychomotor seizure threshold test. The class given is in vivo. The conditions noted are these: VPA 50 mg/kg ip, 15 min before test; 95% confidence limits in brackets. An excerpt: Psychomotor (limbic) seizures were induced by transcorneal stimulation (6 Hz, 0.2 ms rectangular pulse, 3 s duration) generated by a Grass S48 stimulator coupled with a constant current unit CCU1 (both from Grass Technologies, West Warwick, RI, USA). Before stimulation a drop of ocular anesthetic, 1% tetracaine hydrochloride solution, was applied into the animals’ corneas. The electrodes were soaked in saline to ensure the good electrical contact. During the stimulation animals were restrained manually and immediately after the stimulation were placed in a Plexiglas box for observation of presence or absence of the psychomotor seizures. These seizures were characterized by immobilization or stun, often associated with rearing, forelimb clonus, twitching of vibrissae and elevated tail (Straub-tail), lasting at least 10 s from the stimulation. Lack of the above symptoms or their cessation within 10 s from the stimulation was considered as absence of seizure activity.
In the present study two 6 Hz-induced psychomotor seizure tests were performed: (1) the 6 Hz psychomotor seizure threshold test which employed stimulation at varied current intensities, and (2) the 6 Hz psychomotor seizure test with supramaximal stimulation at 32 mA and 44 mA.
In the 6 Hz psychomotor seizures threshold test, threshold current intensity (CS50 in mA) was estimated in groups of 20 animals according to the above mentioned up-and-down method.

Series [5] relates to maximal electroshock seizures in mice. Kind of series: Maximal electroshock seizure threshold (MEST) test. The format is in vivo. The conditions noted are these: VPA 150 mg/kg ip. From the text:
Seizures in the MEST test were evoked by applying a sine-wave alternating current (maximal output voltage 500 V, 50 Hz for 0.2 s) generated by constant current stimulator (Rodent Shocker, Type 221, Hugo Sachs Elektronik, Freiburg, Germany). The stimulation was delivered by saline-socked transcorneal electrodes. Before the stimulation 1% solution of tetracaine hydrochloride was applied into animals’ eyes for local anesthesia. During the stimulation animals were restrained manually and immediately after the stimulation they were placed in the Plexiglas box for observation. The endpoint evaluated in the test was the maximal electroconvulsion which was defined as extension of the hindlimbs above a 90° angle to the torso of animal.
The threshold for maximal electroshock was determined according to the up-and-down method described by Kimball et al.. The mice in the experimental group were subjected to the stimuli with different current intensities (range of 8–30 mA) which changes in 0.06-log steps. If stimulated mouse respond with seizures, the next mouse in the group was stimulated with current of intensity 0.06-log step lower than the previous one. […] Groups of 20 stimulated animals were used to calculate the threshold current strength (CS50 in mA; the current strength which induces tonic hindlimb extension in 50% of the tested animals) with SEM.
CS50 values were compared with one-way ANOVA followed by the Tukey’s multiple comparison test.

The subject of series [6] is mice. Briefly: Chimney test. The format is in vivo. The conditions noted are these: 15 min before test. As to the method:
The chimney test was performed to evaluate influence of PTE on motor coordination in mice. During the test mice had to climb backwards up the plastic transparent cylinder (inner diameter 3 cm and length 30 cm) with gravelly inside. The inability of mice to escape from the cylinder within 60 s was considered as an motor impairment. Results obtained in the test were presented as percent of impaired mice in groups of 10–12 animals and were compared with the Fisher’s exact probability test.

Series [7] relates to PTZ-induced seizures in rats. The conditions noted are these: PTZ test in rats; cited from earlier work.
Series [8] relates to 6 Hz psychomotor seizures in mice. Details: method as in PMID 27600732. The conditions noted are these: cited from earlier work.
The next series concerns MES seizures in mice. More on the design: method as in PMID 27600732. The note with it: cited from earlier work.
The subject of another series is rats. Details: method as in PMID 24717328. The conditions noted are these: acute and chronic administration; cited from earlier work.

On to `CN(C)CCCN1c2ccccc2CCc2ccccc21` [IMI, imipramine, reference compound], for which the “immobility time vs control” value in the series with mice [1] is on record as “Statistically significant difference”.

As to `CCCC(CCC)C(=O)O` [VPA, valproic acid, reference compound], the “threshold for the first myoclonic twitch vs negative control” value in series [2] (p < 0.001) is on record as “Statistically significant increases”. Besides, the “increase of threshold for generalized clonic seizures vs negative control” value in [2] (p < 0.01) was “over 45%”. Moreover, the “threshold for tonic forelimb extension vs negative control” value in series [2] (p < 0.01) is on record as “Statistically significant increase”. Moreover, the Neuromuscular strength in the series on mice [3] (VPA 50 mg/kg ip) was 31.12 ± 1.20 mN/g; in the series with mice [3] (VPA 150 mg/kg ip), 25.36 ± 0.92 mN/g. In addition, in [4], the “CS50 (psychomotor seizure threshold)” value is listed as 15.97 (15.13–16.85) mA. Besides, in series [5] (15 min before test, 95% confidence limits in brackets), the “CS50 (seizure threshold)” value is on record as 14.13 (13.27–15.04) mA. Besides, the “increase of seizure threshold vs negative control” value in [5] (p < 0.001) is on record as ~ 49%. The “Impairment of motor coordination (percentage of animals)” value in the series on mice [6] (VPA 50 mg/kg ip) and in the series with mice [6] (VPA 150 mg/kg ip) was 0% in each case.

In the case of `Oc1ccc(/C=C/c2cc(O)cc(O)c2)cc1` [RES, resveratrol], in [7], the “duration of clonic seizures” value is “reduced the duration” and the “incidence of the generalized tonic-clonic seizures” value was “decreased incidence”. Also, the “anticonvulsant activity in the 6 Hz psychomotor seizure test” value in [8] is given as “showed significant anticonvulsant activity neither in the MES nor 6 Hz psychomotor seizure tests”. Further, the “anticonvulsant activity in the MES test” value with MES seizures in mice is “showed significant anticonvulsant activity neither in the MES nor 6 Hz psychomotor seizure tests”. In the series on rats, the “immobility time in the forced swim test” value is on record as “decreased immobility time”.
